Where “and” joins values, the source holds several entries; their conditions need not be identical. Identical values can stand only once. Entries after “also recorded” stand apart in the source; their conditions may differ. Like-named read-outs stand apart in the source and are kept apart here.
Legend:
recombinant human S1P1 = recombinant human S1P1 (Homo sapiens (Human), UniProt P21453); assay: [32P]S1P competitive binding assay on cell membranes
Procedure: (§1) Competitive binding was performed for 60 min at room temperature and terminated by collecting the membranes onto 96-well glass fiber (GF/B) filtration plates (Millipore, Billerica, Mass.). Each filter was washed with 200 μL of assay buffer for five times. The filter bound radionuclide was measured by a Beckman LS3801 scintillation counter using Cherenkov counting. The reported IC50 values were calculated using the 4 parameter equation, least-square non-linear regression curve-fit, with GraphPad Prism software (GraphPad Software, Inc). Each assay was repeated at least three times with duplicate wells for each compound; the reported values (mean±SD, nM) are calculated from the average of all assays.

S1P2 = S1P2 (Homo sapiens (Human), UniProt O95136); assay: as above; settings: competition against [32P]S1P, mean ± SD
Procedure: as §1

S1P2-S1P5 = assay: [32P]S1P competitive binding assay, other subtypes reported together; parameters: species or system human; settings: one bound for all four subtypes
Procedure: as §1

S1P4 = S1P4 (Homo sapiens (Human), UniProt O95977); assay: [32P]S1P competitive binding assay on cell membranes
Procedure: as §1

S1P5 = S1P5 (Homo sapiens (Human), UniProt Q9H228); assay: as above
Procedure: as §1

S1P3 = S1P3 (Homo sapiens (Human), UniProt Q99500); assay: as above; settings: competition against [32P]S1P, mean ± SD
Procedure: as §1

[1] = Nonhuman primate (NHP) brain microPET scan; assay type: in vivo, macaques; settings: normal NHP
Procedure: To examine if newly-synthesized S1P1 radioligands could cross the BBB of NHPs, two male macaques (9-10 kg) were studied with a microPET Focus 220 scanner (Concorde/CTI/Siemens Microsystems, Knoxville, Tenn.). The welfare of the animals conformed to the requirements of National Institutes of Health (NIH). This work was conducted at the Nonhuman Primate Facility of Washington University in St. Louis with approval from the IACUC. Animals were maintained in facilities with 12-hour dark and light cycles, given access to food and water ad libitum and provided a variety of psychologically enriching tasks to prevent inappropriate deprivation. Animals were scanned under anesthesia (induced with ketamine and glycopyrrolate and maintained with inhalation isoflurane). Core temperature was kept about 37° C. with a heated water blanket. The head was secured in a head holder with the brain in the center of the field of view.
PET scans were collected from O-120 min with the following time frames: 3×1 min, 4×2 min, 3×3 min and 20×5 min. Emission data were corrected for dead time, scatter and attenuation and then reconstructed to a final resolution of 2.0 mm full-width half maximum in all 3 dimensions at the center of the field of view. PET and MRI images were co-registered using automated image registration program (AIR). For quantitative analyses, three-dimensional ROI (the global brain) was identified on the MRI and transformed to the reconstructed PET images to obtain time-activity curves. Activity measures were standardized to body weight and the dose of radioactivity injected to yield standardized uptake value (SUV).

S1P1 = S1P1 (Rattus norvegicus (Rat), UniProt P48303); assay: MicroPET and tracer kinetic modeling in EAE rat model, lumbar spinal cord; assay type: in vivo; settings: for 2TCM Vd / LoganAIF Vd: lumbar spinal cord, n = 3-4
Procedure: MicroPET scans were performed using an Inveon PET/CT system (Siemens Inc., Knoxville, Tenn.). […] Each rat was secured to a custom-designed acrylic bed equipped with a nosecone for gas anesthesia. PET/CT scans were conducted under 1.5-2% isoflurane anesthesia with the rat placed in transaxial position and centered with the T13 vertebral spine in the field of view. […] A list mode protocol was used with 60-min dynamic data acquisition.
PET image data was processed using filter back projection algorithm with attenuation and scatter corrections. The data were reconstructed per time frame employing an iterative reconstructional algorithm (three-dimensional ordered subset expectation maximization (3D-OSEM), maximum a posteriori (MAP)) and corrected for decay, random coincidences, scatter, and attenuation. […] Image data was analyzed using Inveon Research Workstation software IRW 4.2 (Siemens Inc., Knoxville, Tenn.). The regions of interest (ROI), the lumbar spinal cord and bilateral common carotid arteries, were drawn over the co-registered PET/CT images using the standard protocol published previously. Time-activity curves (TACs) were obtained and were expressed as % ID/g. A two-tailed t-test was used for the comparison of the tracer uptake in EAE rat lumbar spinal cord versus sham. A P value less than 0.05 was considered statistically significant. Time-activity curves were further analyzed using 2-tissue-compartment model (2TCM), as well as Logan graphical analysis, using the ROI over bilateral common carotid arteries for image-based arterial blood input function.

[2] = competition against [32P]S1P, membranes with recombinant human S1P1, mean ± SD, read-out: S1P1 IC50 ± SD
[3] = competition against [32P]S1P, mean ± SD

Sequence of recombinant human S1P1 (P21453 whole entry): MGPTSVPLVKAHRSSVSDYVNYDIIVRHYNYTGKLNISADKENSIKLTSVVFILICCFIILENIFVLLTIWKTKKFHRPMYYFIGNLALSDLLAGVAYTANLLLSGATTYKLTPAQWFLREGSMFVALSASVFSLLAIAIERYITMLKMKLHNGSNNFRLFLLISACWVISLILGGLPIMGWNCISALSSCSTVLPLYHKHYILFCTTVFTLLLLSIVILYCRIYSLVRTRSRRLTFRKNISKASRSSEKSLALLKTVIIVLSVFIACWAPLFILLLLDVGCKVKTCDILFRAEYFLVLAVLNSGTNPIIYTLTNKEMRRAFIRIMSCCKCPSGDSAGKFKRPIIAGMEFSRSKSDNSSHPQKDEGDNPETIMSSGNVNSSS
Sequence of S1P3 (Q99500 whole entry): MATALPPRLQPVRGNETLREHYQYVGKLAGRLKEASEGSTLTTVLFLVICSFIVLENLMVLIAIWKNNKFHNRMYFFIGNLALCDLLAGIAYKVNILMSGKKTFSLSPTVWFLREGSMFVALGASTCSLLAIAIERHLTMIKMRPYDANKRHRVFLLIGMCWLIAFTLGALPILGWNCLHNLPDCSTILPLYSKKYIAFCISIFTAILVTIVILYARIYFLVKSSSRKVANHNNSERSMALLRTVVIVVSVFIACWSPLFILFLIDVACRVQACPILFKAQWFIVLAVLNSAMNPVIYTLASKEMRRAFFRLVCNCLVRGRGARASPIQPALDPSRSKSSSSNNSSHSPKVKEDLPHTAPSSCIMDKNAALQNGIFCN
Sequence of S1P2 (O95136 whole entry): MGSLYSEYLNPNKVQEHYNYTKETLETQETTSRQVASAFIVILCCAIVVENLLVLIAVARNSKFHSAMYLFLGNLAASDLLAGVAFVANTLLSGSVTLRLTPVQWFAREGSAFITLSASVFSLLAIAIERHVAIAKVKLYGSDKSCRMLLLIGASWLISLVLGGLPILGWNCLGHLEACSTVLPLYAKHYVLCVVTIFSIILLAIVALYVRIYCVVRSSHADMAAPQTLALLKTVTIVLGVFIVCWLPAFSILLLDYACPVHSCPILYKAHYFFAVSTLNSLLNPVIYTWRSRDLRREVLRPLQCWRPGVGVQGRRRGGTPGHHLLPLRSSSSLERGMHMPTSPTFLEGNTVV
Sequence of S1P4 (O95977 whole entry): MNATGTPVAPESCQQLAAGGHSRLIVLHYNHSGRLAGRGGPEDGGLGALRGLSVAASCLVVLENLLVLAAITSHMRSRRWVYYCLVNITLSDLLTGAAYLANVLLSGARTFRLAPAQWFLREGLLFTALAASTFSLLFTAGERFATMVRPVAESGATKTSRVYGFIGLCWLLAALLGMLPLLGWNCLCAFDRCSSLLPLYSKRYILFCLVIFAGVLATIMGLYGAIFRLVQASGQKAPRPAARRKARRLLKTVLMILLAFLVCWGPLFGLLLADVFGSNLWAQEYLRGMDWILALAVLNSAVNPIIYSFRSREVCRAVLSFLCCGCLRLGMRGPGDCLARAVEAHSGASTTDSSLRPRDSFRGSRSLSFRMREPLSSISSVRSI
Sequence of S1P1 (P48303 whole entry): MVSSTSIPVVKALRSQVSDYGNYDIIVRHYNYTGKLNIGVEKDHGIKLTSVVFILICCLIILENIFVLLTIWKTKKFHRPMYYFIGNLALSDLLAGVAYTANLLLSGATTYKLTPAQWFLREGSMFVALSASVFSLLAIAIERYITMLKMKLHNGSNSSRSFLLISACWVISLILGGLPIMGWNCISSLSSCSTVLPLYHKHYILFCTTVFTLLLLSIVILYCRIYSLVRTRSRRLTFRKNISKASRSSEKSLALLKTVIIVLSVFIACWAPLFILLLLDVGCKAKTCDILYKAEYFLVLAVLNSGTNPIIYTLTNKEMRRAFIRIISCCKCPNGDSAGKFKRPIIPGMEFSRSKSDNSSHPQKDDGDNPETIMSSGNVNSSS
Sequence of S1P5 (Q9H228 whole entry): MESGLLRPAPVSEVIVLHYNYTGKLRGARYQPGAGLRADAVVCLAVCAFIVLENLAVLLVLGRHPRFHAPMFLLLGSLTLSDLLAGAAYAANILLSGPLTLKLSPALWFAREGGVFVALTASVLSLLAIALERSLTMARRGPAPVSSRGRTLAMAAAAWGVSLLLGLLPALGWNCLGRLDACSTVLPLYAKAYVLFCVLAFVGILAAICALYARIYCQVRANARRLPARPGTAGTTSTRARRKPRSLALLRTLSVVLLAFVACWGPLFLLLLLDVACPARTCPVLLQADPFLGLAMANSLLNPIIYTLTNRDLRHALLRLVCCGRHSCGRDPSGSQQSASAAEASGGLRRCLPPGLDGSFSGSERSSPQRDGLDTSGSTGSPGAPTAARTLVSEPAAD

Row | Molecule | IC50 (recombinant human S1P1; [2]) [µM] | IC50 (S1P2) [µM] | IC50 (S1P2-S1P5) [µM] | IC50 (S1P3) [µM] | IC50 (S1P4) [µM] | IC50 (S1P5) [µM] | IC50 (recombinant human S1P1; read-out: S1P1 IC50 ± SD) [µM] | also measured
1 | OCCOCc1ccc(-c2noc(-c3ccc(OCCF)c(C(F)(F)F)c3)n2)cc1 [Compound 12a] | – | > 1 | > 1 | > 1 | > 1 | > 1 | – | –
2 | NS(=O)(=O)c1ccc(-c2noc(-c3ccc(OCCF)c(C(F)(F)F)c3)n2)cc1 [Compound 19a] | – | > 1 | > 1 | > 1 | > 1 | > 1 | < 0.02 | IC50 (recombinant human S1P1; competition against [32P]S1P, membranes with recombinant human S1P1, mean ± SD, listed as TZ-43-73, read-out: S1P1 IC50 ± SD): 0.0132 ± 0.00323 µM
3 | NNC(=O)c1ccc(-c2noc(-c3ccc(OCCF)c(C(F)(F)F)c3)n2)cc1 [Compound 20c, 4-(5-(4-(2-Fluoroethoxy)-3-(trifluoromethyl)phenyl)-1,2,4-oxadiazol-3-yl)benzohydrazide] | – | > 1 | > 1 | > 1 | > 1 | > 1 | < 0.02 | IC50 (recombinant human S1P1; competition against [32P]S1P, membranes with recombinant human S1P1, mean ± SD, listed as TZ-43-153, read-out: S1P1 IC50 ± SD): 0.0147 ± 0.00167 µM; Fold decreased S1P1 IC50 compared to 19b (recombinant human S1P1; vs 19b): 5 fold
4 | OCCOCCOCc1ccc(-c2noc(-c3ccc(OCC[18F])c(C(F)(F)F)c3)n2)cc1 [[^18F]12b] | – | – | – | – | – | – | – | Max SUV value in total brain ([1]; microPET): ~2.4 SUV; Blood-brain barrier crossing, NHP brain ([1]; microPET, listed as 18F-TZ4881): able to cross the blood brain barrier; also recorded: able to cross the BBB; Time to max SUV in total brain ([1]; post injection): ~5 min; Visualization of rat lumbar spinal cord by microPET (S1P1; EAE and sham rats): clear visualization of lumbar spinal cord; 2TCM Vd (S1P1; EAE rats): 2.30 ± 0.13 mL/g; LoganAIF Vd (S1P1; EAE rats): 2.27 ± 0.18 mL/g; Tracer uptake in lumbar spinal cord, EAE (S1P1; EAE rats, summed SUV values 10-60 min post injection, n=3-4): 1.20±0.04 SUV; 2TCM Vd (S1P1; Sham rats): 1.76 ± 0.19 mL/g; LoganAIF Vd (S1P1; Sham rats): 1.75 ± 0.21 mL/g; Increase of tracer uptake in EAE rat lumbar spinal cord compared with shams (S1P1; microPET, 10-60 min post injection): 22.9%; Averaged tracer uptake in sham rat spinal cord (S1P1; sham rats, 10-60 min post injection): 1.0-1.1; Tracer uptake in lumbar spinal cord, sham (S1P1; sham rats, summed SUV values 10-60 min post injection, n=3-4): 0.98±0.09 SUV

Now from value to molecule, other results behind:

Row | IC50 (recombinant human S1P1; [2]) [µM] | IC50 (S1P2) [µM] | IC50 (S1P2-S1P5) [µM] | IC50 (S1P3) [µM] | IC50 (S1P4) [µM] | IC50 (S1P5) [µM] | IC50 (recombinant human S1P1; read-out: S1P1 IC50 ± SD) [µM] | Molecule | also measured
5 | 0.0063 ± 0.0013 | > 1 | > 1 | > 1 | – | – | – | 3-((4-(5-(4-(2-Fluoroethoxy)-3-(trifluoromethyl)phenyl)-1,2,4-oxadiazol-3-yl)benzypamino)propanoic acid [Compound 26b] | IC50 (S1P4; [3]): > 1 µM; IC50 (S1P5; [3]): > 1 µM
6 | – | > 1 | > 1 | > 1 | > 1 | > 1 | – | OCc1ccc(-c2noc(-c3ccc(OCCF)c(C(F)(F)F)c3)n2)cc1 [Compound 8c, (4-(5-(4-(2-Fluoroethoxy)-3-(trifluoromethyl)phenyl)-1,2,4-oxadiazol-3-yl)phenyl)methanol] | –
7 | – | > 1 | > 1 | > 1 | – | – | – | OCC(O)COCc1ccc(-c2noc(-c3ccc(OCCF)c(C(F)(F)F)c3)n2)cc1 (centres unmarked) [Compound 8h] | Fold increase of S1P1 binding potency compared to 8g (recombinant human S1P1; vs 8g): 10 fold; IC50 (S1P4; [3]): > 1 µM; IC50 (S1P5; [3]): > 1 µM
8 | 0.0154 ± 0.0033 | > 1 | > 1 | > 1 | > 1 | > 1 | < 0.02 | OCCOCCOCc1ccc(-c2noc(-c3ccc(OCCF)c(C(F)(F)F)c3)n2)cc1 [Compound 12b] | Fold decrease of S1P1 binding potency compared to 8c (recombinant human S1P1; vs 8c): approximately 2 fold
9 | 0.0097 ± 0.0016 | > 1 | > 1 | > 1 | > 1 | > 1 | < 0.02 | OCc1cn(Cc2ccc(-c3noc(-c4ccc(OCCF)c(C(F)(F)F)c4)n3)cc2)nn1 [Compound 22b, (1-(4-(5-(4-(2-Fluoroethoxy)-3-(trifluoromethyl)phenyl)-1,2,4-oxadiazol-3-yl)benzyl)-1H-1,2,3-triazol-4-yl)met-hanol] | IC50 (recombinant human S1P1; Table 9, avg, n = 2-3, read-out: S1P1 IC50, second value in parentheses (average) (converted)): 0.0098 µM; IC50 (recombinant human S1P1; competition against [32P]S1P, membranes with recombinant human S1P1, mean ± SD, listed as TZ43113, read-out: S1P1 IC50 ± SD): 0.0097 µM and 0.00965 µM; IC50 (recombinant human S1P1; competition against [32P]S1P, membranes with recombinant human S1P1, mean ± SD, listed as TZ-43-113, read-out: S1P1 IC50 ± SD): 0.00965 ± 0.00161 µM; Fold decreased S1P1 IC50 compared to 22a (recombinant human S1P1; vs corresponding acid 22a): 35 fold

Reference: patent US10676467B2 (Washington University, priority 2017, dated 2020)
